# Positions count from the first letter of the chain named. Where two headings read alike, the source gives them in different places.
# What was measured:
# AR protein [1] = target: T1, AR protein (Homo sapiens, UniProt P10275, T878A); experiment: Degradation of AR protein in LNCaP cells (Western blot); assay type: cell-based; details: for inhibition at 0.01 µM: read-out: Degradation rates of the AR protein in LNCaP cells, 10 nM (%); for inhibition at 0.1 µM: read-out: Degradation rates of the AR protein in LNCaP cells, 100 nM (%)
# T1 construct: degradation activity of the compounds disclosed in the present disclosure on AR protein in LNCaP cells; host or cells: LNCaP FGC
# T1 sequence (P10275 1-920 T878A): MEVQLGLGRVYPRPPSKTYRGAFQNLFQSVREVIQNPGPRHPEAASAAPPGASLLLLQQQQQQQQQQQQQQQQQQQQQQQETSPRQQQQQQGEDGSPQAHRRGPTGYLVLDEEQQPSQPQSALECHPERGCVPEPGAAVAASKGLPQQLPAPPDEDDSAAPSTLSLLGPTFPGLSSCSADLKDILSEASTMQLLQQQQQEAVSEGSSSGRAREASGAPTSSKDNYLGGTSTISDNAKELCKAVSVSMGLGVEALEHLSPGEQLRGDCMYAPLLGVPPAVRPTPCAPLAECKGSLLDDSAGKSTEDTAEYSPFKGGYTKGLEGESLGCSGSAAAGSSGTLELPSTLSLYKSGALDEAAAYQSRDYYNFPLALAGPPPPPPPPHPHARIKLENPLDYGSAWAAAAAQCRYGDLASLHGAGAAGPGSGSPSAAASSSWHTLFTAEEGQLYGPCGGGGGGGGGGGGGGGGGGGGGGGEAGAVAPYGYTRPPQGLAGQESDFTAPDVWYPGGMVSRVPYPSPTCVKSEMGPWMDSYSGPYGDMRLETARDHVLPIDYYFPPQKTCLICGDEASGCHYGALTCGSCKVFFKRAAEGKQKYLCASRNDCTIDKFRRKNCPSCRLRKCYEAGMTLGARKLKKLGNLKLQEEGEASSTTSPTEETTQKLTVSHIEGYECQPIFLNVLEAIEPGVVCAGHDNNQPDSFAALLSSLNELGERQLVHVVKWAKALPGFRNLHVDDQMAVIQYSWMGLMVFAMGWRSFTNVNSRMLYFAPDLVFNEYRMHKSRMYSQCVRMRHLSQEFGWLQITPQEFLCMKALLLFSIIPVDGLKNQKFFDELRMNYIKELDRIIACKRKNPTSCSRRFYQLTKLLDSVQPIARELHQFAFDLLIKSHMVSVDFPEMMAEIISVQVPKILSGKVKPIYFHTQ
# Protocol: The degradation activity of the compounds disclosed in the present disclosure on AR protein in LNCaP cells (cell source: ATCC)
# (§1) Corresponding solvent controls were also set and cultured for 8 hours. After 8 hours of cultivation, the culture medium was removed and the cells were washed with PBS. RIPA lysis buffer containing 1% Protease Inhibitor Cocktail was added, and the total protein extract was obtained by lysis and centrifugation. The protein concentration in the extract was detected by BCA method. Protein electrophoresis was performed using SDS-PAGE, followed by transfer of the protein onto a PVDF (Millipore Sigma catalog No. PSRP010R5) membrane at 100V constant voltage for 60 minutes. The PVDF membrane was then placed in a 1×TBST solution with 5% milk and blocked at room temperature for 1 hour. […] The primary antibody solution was discarded and the PVDF membrane was washed three times with 1×TBST for 5 minutes/time. […] The secondary antibody solution was discarded and the PVDF membrane was washed three times with 1×TBST for 5 minutes/time. Western blot imaging was performed by using a dual color infrared laser imaging system (Licor catalog No. Odyssey CLX). Bands were analyzed in grayscale using Image Studio software. For each sample, GAPDH protein bands were detected as internal reference. The degradation rates of the AR protein for the compounds and the positive control sample were calculated based on grayscale of the protein bands.
# AR protein [2] = target: T2, AR protein (Homo sapiens, UniProt P10275); experiment: Degradation of AR protein in VCaP cells (Western blot); assay type: cell-based; details: 8 hours; for inhibition at 0.01 µM: read-out: Degradation rate of the AR protein in VCaP cells, 10 nM (%); for inhibition at 0.1 µM: read-out: Degradation rate of the AR protein in VCaP cells, 100 nM (%)
# T2 construct: degradation activity of the compounds disclosed in the present disclosure on AR protein in VCaP cells; host or cells: VCaP
# T2 sequence (P10275 1-920): T1 sequence (P10275 1-920 T878A) with A878T
# Protocol: The degradation activity of the compounds disclosed in the present disclosure on AR protein in VCaP cells (cell source: ATCC)
# as §1
# [3] = LNCaP cells, compound 10 nM, 8 hours, Western blot grayscale, GAPDH internal reference
# [4] = LNCaP cells, compound 100 nM, 8 hours, Western blot grayscale, GAPDH internal reference
SMILES,inhibition at 0.01 µM (AR protein [1]; [3]) [%],inhibition at 0.1 µM (AR protein [1]; [4]) [%],inhibition at 0.01 µM (AR protein [2]; compound at 10 nM) [%],inhibition at 0.1 µM (AR protein [2]; compound at 100 nM) [%],"Degradation rate of the AR protein in VCaP cells, 10 nM (%) (AR protein [2]; compound at 10 nM)","Degradation rate of the AR protein in VCaP cells, 100 nM (%) (AR protein [2]; compound at 100 nM)","inhibition at 0.01 µM (AR protein [1]; LNCaP, 8 h) [%]","inhibition at 0.1 µM (AR protein [1]; LNCaP, 8 h) [%]"
CCOC1(CN2CCC3(CC2)COc2c3ccc3c2CN(C2CCC(=O)NC2=O)C3=O)CCN(c2ccc(C(=O)N[C@H]3CC[C@H](Oc4ccc(C#N)c(Cl)c4)CC3)nn2)CC1 (stereo partly drawn) [Compound 155],29,1,58,80,,,,
N#Cc1ccc(O[C@H]2CC[C@H](NC(=O)c3ccc(N4CCC(C#N)(CN5CCC6(CC5)COc5c6ccc6c5CN(C5CCC(=O)NC5=O)C6=O)CC4)nn3)CC2)cc1Cl (stereo partly drawn) [Compound 156],52,53,37,75,,,,
N#Cc1ccc(O[C@H]2CC[C@H](NC(=O)c3ccc(N4CC5(CC(N6CCC7(CC6)COc6c7ccc7c6C(=O)N(C6CCC(=O)NC6=O)C7=O)C5)C4)nn3)CC2)cc1Cl (stereo partly drawn) [Compound 140],,,,,−14,38,,
COc1cc(O[C@H]2CC[C@H](NC(=O)c3ccc(N4CCC(C)(CN5CCC6(CC5)COc5c6ccc6c5C(=O)N(C5CCC(=O)NC5=O)C6=O)CC4)nn3)CC2)ccc1C#N (stereo partly drawn) [Compound 180],12,53,29,73,,,,
N#Cc1ccc(O[C@H]2CC[C@H](NC(=O)c3ccc(N4CCC(N5CC(N6CCC7(CC6)COc6c7ccc7c6CN(C6CCC(=O)NC6=O)C7=O)C5)CC4)nn3)CC2)cc1Cl (stereo partly drawn) [Compound 144],68,39,82,86,,,,
N#Cc1ccc(O[C@H]2CC[C@H](NC(=O)c3cnc(N4CCC(F)(CN5CCC6(CC5)COc5c6ccc6c5CN(C5CCC(=O)NC5=O)C6=O)CC4)nc3)CC2)cc1Cl (stereo partly drawn) [Compound 158],43,37,62,81,,,,
N#Cc1ccc(O[C@H]2CC[C@H](NC(=O)c3ccc(N4CCC5(CC4)CC(N4CCC6(CCc7cc8c(cc7O6)C(=O)N(C6CCC(=O)NC6=O)C8=O)CC4)C5)nn3)CC2)cc1Cl (stereo partly drawn) [Compound 31],52,69,67,70,,,,
N#Cc1ccc(O[C@H]2CC[C@H](NC(=O)c3ccc(N4CC(N5CCC6(CCc7cc8c(cc7O6)CN(C6CCC(=O)NC6=O)C8=O)CC5)C4)nn3)CC2)cc1Cl (stereo partly drawn) [Compound 42],,,45,33,,,29,49
N#Cc1ccc(O[C@H]2CC[C@H](NC(=O)c3ccc(N4CCC5(CCC(N6CCC7(CC6)COc6c7ccc7c6CN(C6CCC(=O)NC6=O)C7=O)CC5)CC4)nn3)CC2)cc1Cl (stereo partly drawn) [Compound 137],68,21,80,90,,,,
CC1(CN2CCC3(CC2)COc2c3ccc3c2CN(C2CCC(=O)NC2=O)C3=O)CCN(c2ncc(C(=O)N[C@H]3CC[C@H](Oc4ccc(C#N)c(Cl)c4)CC3)cn2)CC1 (stereo partly drawn) [Compound 193],18,31,21,78,,,,
N#Cc1ccc(O[C@H]2CC[C@H](NC(=O)c3ccc(N4CC(N5CCC6(CC5)Cc5cc7c(cc5O6)C(=O)N(C5CCC(=O)NC5=O)C7=O)C4)nn3)CC2)cc1Cl (stereo partly drawn) [Compound 79],,,36,42,,,23,28
N#Cc1ccc(O[C@H]2CC[C@H](NC(=O)c3ccc(N4CCC(N5CCC6(CC5)COc5c6ccc6c5CN(C5CCC(=O)NC5=O)C6=O)CC4)nn3)CC2)cc1Cl (stereo partly drawn) [Compound 169],,,79,82,,,75,53
N#Cc1ccc(O[C@H]2CC[C@H](NC(=O)c3ccc(N4CCC5(CC4)CC(N4CCC6(CC4)COc4c6ccc6c4CN(C4CCC(=O)NC4=O)C6=O)C5)nn3)CC2)cc1Cl (stereo partly drawn) [Compound 184],79,41,,,,,,
